{"source": "paper PMC2229834", "about": "(Molecular Microbiology, 2007)", "key": {"[1]": {"biological_target": "T1, human PTPS (HsPTPS) (Homo sapiens, UniProt Q03393)", "T1 sequence (Q03393 1-145)": "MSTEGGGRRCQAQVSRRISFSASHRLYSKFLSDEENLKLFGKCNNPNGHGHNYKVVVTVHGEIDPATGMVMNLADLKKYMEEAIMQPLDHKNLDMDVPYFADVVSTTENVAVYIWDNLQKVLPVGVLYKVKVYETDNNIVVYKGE", "experiment": "HPLC with fluorescence of iodine-oxidised pterin products", "assay_type": "biochemical", "conditions": "9 uM DHNTP, 10 mM MgCl2, 2 mM DTT, pH 8.0, 37 C, 1 h"}, "[2]": {"biological_target": "T2, E. coli PTPS (EcPTPS) (Escherichia coli, UniProt P65870)", "T2 sequence (P65870 1-121)": "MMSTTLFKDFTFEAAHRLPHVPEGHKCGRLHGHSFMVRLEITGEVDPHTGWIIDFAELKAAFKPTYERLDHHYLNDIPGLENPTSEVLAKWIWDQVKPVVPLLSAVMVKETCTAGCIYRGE", "experiment": "HPLC with fluorescence of iodine-oxidised pterin products", "assay_type": "biochemical", "conditions": "9 uM DHNTP, 10 mM MgCl2, 2 mM DTT, pH 8.0, 37 C, 1 h"}}, "data": [{"smiles": "Nc1nc2c(c(=O)[nH]1)N=C([C@H](O)[C@H](O)COP(=O)(O)OP(=O)(O)OP(=O)(O)O)CN2", "note": "[DHNTP]", "values": [{"measurement": "HPLC with fluorescence of iodine-oxidised pterin products", "setting": "[1]", "result": "Both the bacterial and human enzymes converted DHNTP to PTP as expected"}, {"measurement": "HPLC with fluorescence of iodine-oxidised pterin products", "setting": "[2]", "result": "Both the bacterial and human enzymes converted DHNTP to PTP as expected"}]}]}
